Tests used:
[1] = cytotoxicity towards HFF host cells (Cell Titer 96); conditions: human, % Inhibition of host cell growth (values in parenthesis)
Protocol: (§1) Cytotoxicity of the test compounds towards host cells was determined using the Cell Titer 96™ it (Promega Corporation, Madison, Wis.) as follows. Cells were seeded at a concentration of 5×10^3 cells per well containing 100 μl of medium in 96-well flat-bottom microtiter plates and incubated at 37° C. in a 5% carbon dioxide environment for 4 hours. Dilutions of the test compounds prepared as described above were then added, and incubation continued for 24, 48 or 72 hours. Four hours before each of these time points the growth medium containing test compound was replaced with 100 μl of fresh medium followed by addition of 16 μl of the kit dye solution. After incubation at 37° C. for another 4 hours, 100 μl of the kit solubilization/stop solution was added to each well, the contents of the wells were mixed and the plates kept 1 hour at room temperature. The plates were then read spectrophotometrically in a plate reader at a wavelength of 570 nm. […] Atovaquone was included in the test as a standard.

Toxoplasma gondii [2] = experiment: growth inhibition of T. gondii in HFF host cells ([3H]-uracil incorporation); type: cell-based; conditions: Toxoplasma gondii; for inhibition at 0.5 µg/mL: 0.5 μg/ml; for inhibition at 0.05 µg/mL: 0.05 μg/ml
Protocol: (§2) Compounds were tested for it vitro growth inhibitory activity against Toxoplasma gondii replication in L929 (L929-ATCC CCL 1, mouse connective tissue) or HFF (human foreskin fibroblast) host cells using the [^3 H]-uracil incorporation technique as follows. Host cells were grown in 96-well flat-bottom microtiter plates at 37° C in a 5% carbon dioxide environment in modified Eagle's medium containing penicillin, streptomycin and 10% fetal equine serum. Wells containing a homogeneous confluent monolayer of host cells were infected with T. gondii tachyzoites at a ratio of 3 parasites per cell (approximately 6×10^4 tachyzoites per well containing 100 μl of medium). […] Two hours post infection, the cultures were washed to remove free parasites and the various dilutions of test compound were added. Cells were subsequently collected at 24, 48 and 72 hours. Four hours prior to each harvesting 50 Al of [^3 H]-uracil (1 μCi) was added. Cells were collected using a cell harvester and incorporated radioactivity was measured using a scintillation counter. […]

Toxoplasma gondii [3] = experiment: growth inhibition of T. gondii in L929 host cells ([3H]-uracil incorporation); type: cell-based; conditions: Toxoplasma gondii, L929 host cells; for inhibition at 0.05 µg/mL: 0.05 μg/ml; for inhibition at 0.5 µg/mL: 0.5 μg/ml; for inhibition at 0.5 µg/mL / inhibition at 5 µg/mL: read-out: % Inhibition; for inhibition at 5 µg/mL: 5.0 μg/ml
Protocol: as §2

[4] = cytotoxicity towards L929 host cells (Cell Titer 96); conditions: mouse, % Inhibition of host cell growth (values in parenthesis)
Protocol: as §1

Cryptosporidium parvum = experiment: growth inhibitory activity against C. parvum in host MDBKF5D2 cells (immunofluorescence); type: cell-based; conditions: Cryptosporidium parvum, 48 h
Protocol: (§3) Compounds were tested for in vitro growth inhibitory activity against C. parvum grown in host MDBKF5D2 cells and for toxicity towards the host cells as follows. […] To test for toxicity towards the host cells, the media containing test compound (200 μl) were introduced into two wells of a 96 well microtiter plate containing confluent MDBKF5D2 cell monolayers and two wells without monolayers, and incubated at 37° C. in an 8% carbon dioxide environment. After 48 hours, the tetrazolium salt MTS (Owen's solution) and phenazine methosulfate were added to each well at concentrations of 333 μg/ml and 25 μM, respectively. The plate was returned to the incubator in the dark to develop for 2 hours, then 100 μl of each supernatant was transferred to a new microtiter plate and read spectrophotometrically in a plate reader at a wavelength of 490 nm. Percent toxicity was calculated by subtracting the mean optical density (OD) of the drug supernatants from the OD of medium control supernatants (no drug), dividing by the OD of the medium control, and multiplying by 100. To test for growth inhibitory activity against C. parvum, 3×10^4 oocysts per well were incubated in mentioned concentrations of each drug at 37° C. (8% CO2) on confluent MDBKF5D2 cell monolayers in 96 well microtiter plates. After 48 hours, the level of infection in each well was determined by means of an immunofluorescence assay. Percent inhibition of growth was calculated by subtracting the mean parasite count in the wells containing test compound from the mean parasite count in the medium control wells (no test compound), dividing by the mean parasite count in the medium control wells, and multiplying by 100. Paromomycin was included in the test as a standard.

[5] = toxicity towards MDBKF5D2 host cells (MTS); conditions: bovine, mdbkf5d2 cells, Cytotoxicity (percent toxicity)
Protocol: as §3

[6] = 24 h, HFF host cells, 24 hours, read-out: % Inhibition
[7] = 24 h, HFF host cells, 5.0 μg/ml, 24 hours, read-out: % Inhibition
[8] = 48 h, HFF host cells, 48 hours, read-out: % Inhibition
[9] = 48 h, HFF host cells, 5.0 μg/ml, 48 hours, read-out: % Inhibition
[10] = 72 h, HFF host cells, 72 hours, read-out: % Inhibition
[11] = 72 h, HFF host cells, 5.0 μg/ml, 72 hours, read-out: % Inhibition

Row | SMILES | inhibition at 24 h ([1]; 0.5 μg/ml) [%] | inhibition at 48 h ([1]; 0.5 μg/ml) [%] | inhibition at 72 h ([1]; 0.5 μg/ml) [%] | inhibition at 24 h ([1]; 5.0 μg/ml) [%] | inhibition at 48 h ([1]; 5.0 μg/ml) [%] | inhibition at 72 h ([1]; 5.0 μg/ml) [%] | inhibition at 0.5 µg/mL (Toxoplasma gondii [2]; [6]) [%] | inhibition at 5 µg/mL (Toxoplasma gondii [2]; [7]) [%] | inhibition at 0.5 µg/mL (Toxoplasma gondii [2]; [8]) [%] | inhibition at 0.5 µg/mL (Toxoplasma gondii [2]; [10]) [%] | inhibition at 5 µg/mL (Toxoplasma gondii [2]; [11]) [%] | inhibition at 0.5 µg/mL (Toxoplasma gondii [3]; L929, 24 h, 24 hours) [%] | inhibition at 5 µg/mL (Toxoplasma gondii [3]; L929, 24 h, 24 hours) [%] | inhibition at 0.5 µg/mL (Toxoplasma gondii [3]; L929, 48 h, 48 hours) [%] | inhibition at 5 µg/mL (Toxoplasma gondii [3]; L929, 48 h, 48 hours) [%] | inhibition at 0.5 µg/mL (Toxoplasma gondii [3]; L929, 72 h, 72 hours) [%] | inhibition at 5 µg/mL (Toxoplasma gondii [3]; L929, 72 h, 72 hours) [%] | inhibition at 24 h ([4]; L929, 0.5 μg/ml) [%] | inhibition at 48 h ([4]; L929, 0.5 μg/ml) [%] | inhibition at 72 h ([4]; L929, 0.5 μg/ml) [%] | other results
1 | O=C1C(O)=C([C@H]2CC[C@H](c3ccc(Cl)cc3)CC2)C(=O)c2ccccc21 [Atovaquone, reference compound] | 0 | 9.6 | 1.4 | 6.2 | 31.1 | 28.1 | 98.3 | 95.5 | 77.8 | 99.8 | 100 | 85.2 | 80.3 | 99 | 100 | 98.4 | 97.8 | 14.3 | 15 | 44.4 | inhibition at 24 h ([1]; 0.05 μg/ml): 0%; inhibition at 48 h ([1]; 0.05 μg/ml): 0%; inhibition at 72 h ([1]; 0.05 μg/ml): 0%; inhibition at 0.05 µg/mL (Toxoplasma gondii [2]; 48 h, HFF host cells): 50.5%; inhibition at 5 µg/mL (Toxoplasma gondii [2]; [9]): 99.8%; inhibition at 0.05 µg/mL (Toxoplasma gondii [2]; 72 h, HFF host cells): 89.4%; inhibition at 0.05 µg/mL (Toxoplasma gondii [3]; L929, 24 h, 24 hours): 80.9%; inhibition at 0.05 µg/mL (Toxoplasma gondii [3]; L929, 48 h, 48 hours): 0%; inhibition at 0.05 µg/mL (Toxoplasma gondii [3]; L929, 72 h, 72 hours): 0%; inhibition at 24 h ([4]; L929, 0.05 μg/ml): 0%; inhibition at 48 h ([4]; L929, 0.05 μg/ml): 0%; inhibition at 72 h ([4]; L929, 0.05 μg/ml): 0.2%; inhibition at 24 h ([4]; L929, 5.0 μg/ml): 20%; inhibition at 48 h ([4]; L929, 5.0 μg/ml): 54.1%; inhibition at 72 h ([4]; L929, 5.0 μg/ml): 78.1%
2 | NC[C@@H]1O[C@H](O[C@H]2[C@@H](O)[C@H](O[C@@H]3[C@@H](O)[C@H](N)C[C@H](N)[C@H]3O[C@H]3O[C@H](CO)[C@@H](O)[C@H](O)[C@H]3N)O[C@@H]2CO)[C@H](N)[C@@H](O)[C@@H]1O [Paromomycin, reference compound] | – | – | – | – | – | – | – | – | – | – | – | – | – | – | – | – | – | – | – | – | inhibition at 2000 µg/mL (Cryptosporidium parvum): 77.8%
3 | CCC(C)(NC(=O)c1cc(Br)c(N)c(Br)c1)C(=O)CCl (stereo not shown) [Compound 14] | 4.1 | 3.7 | 0 | 5.8 | 31.8 | 53.6 | 63.9 | 87.4 | 96.1 | 77.8 | 99.1 | 29.3 | 6.9 | 79.8 | 61.2 | 84.9 | 79.7 | 8.9 | 0 | 0 | cytotoxicity at 48 h, 0.1 µM [5]: 21%; cytotoxicity at 48 h, 1 µM [5]: 6.1%; cytotoxicity at 48 h, 10 µM [5]: 3.9%; cytotoxicity at 48 h, 100 µM [5]: 22.3%; inhibition at 5 µg/mL (Toxoplasma gondii [2]; [9]): 99.7%; inhibition at 24 h ([4]; L929, 5.0 μg/ml): 21.8%; inhibition at 48 h ([4]; L929, 5.0 μg/ml): 58.7%; inhibition at 72 h ([4]; L929, 5.0 μg/ml): 77.6%; inhibition at 0.1 µM (Cryptosporidium parvum): 2.1%; inhibition at 1 µM (Cryptosporidium parvum): 11.3%; inhibition at 10 µM (Cryptosporidium parvum): 35.4%; inhibition at 100 µM (Cryptosporidium parvum): 86.7%
4 | CCC(C)(NC(=O)c1cc(F)cc(F)c1)C(=O)CCl (stereo not shown) [Compound 12] | 4.6 | 5.4 | 0 | 7.7 | 29.1 | 41.3 | 53.4 | 84.4 | 95.3 | 91.6 | 99.8 | 42 | 2.8 | 77.6 | 55 | 59 | 86.2 | 8 | 0 | 0 | cytotoxicity at 48 h, 0.1 µM [5]: 11.2%; cytotoxicity at 48 h, 1 µM [5]: 2.5%; cytotoxicity at 48 h, 10 µM [5]: 9.9%; cytotoxicity at 48 h, 100 µM [5]: 9.9%; inhibition at 5 µg/mL (Toxoplasma gondii [2]; 48 h): 97.3%; inhibition at 24 h ([4]; L929, 5.0 μg/ml): 18.9%; inhibition at 48 h ([4]; L929, 5.0 μg/ml): 66.8%; inhibition at 72 h ([4]; L929, 5.0 μg/ml): 88%; inhibition at 0.1 µM (Cryptosporidium parvum): 9.4%; inhibition at 1 µM (Cryptosporidium parvum): 7.2%; inhibition at 10 µM (Cryptosporidium parvum): 21.3%; inhibition at 100 µM (Cryptosporidium parvum): 88.9%

— patent US6107316A, “Method for treating protozoal infections” (priority 1998, dated 2000)
